Laboratory results reported in ChEMBL document CHEMBL4622896, “Enzymatic biosynthesis and biological evaluation of novel 17-AAG glucoside as potential anti-cancer agents” (Bioorg Med Chem Lett, 2020).
Converted amounts (≈) assume the structure as drawn. The source made the active and inactive calls. No cut-off for these calls is given here.

Assays:
[1] = test system: CNE2Z; experiment: Antiproliferative activity against human CNE2Z cells assessed as cell growth inhibition by MTT assay; type: functional, cell-based
[2] = Solubility of the compound in water; type: physicochemical
[3] = Toxicity in nude mouse xenografted with human CNE2Z cells assessed as effect on liver at 1 mg/kg, ip administered for 19 days by hematoxylin and eosin staining based assay; type: organism-based; details: in vivo, 456 h
[4] = test system: CNE2Z; experiment: Antitumor activity against human CNE2Z cells xenografted in nude mouse assessed as reduction in tumor volume at 1 mg/kg, ip administered for 19 days relative to control; type: functional; details: 456 h
[5] = Toxicity in nude mouse xenografted with human CNE2Z cells assessed as effect on kidney at 1 mg/kg, ip administered for 19 days by hematoxylin and eosin staining based assay; type: organism-based; details: in vivo, 456 h
[6] = target: T1, Heat shock protein HSP90 (Homo sapiens, UniProt P07900+P08238); experiment: Inhibition of HSP90 in human CNE2Z cells assessed as downregulation of Akt expression at 10 to 40 uM by Western blot analysis; type: cell-based
[7] = target: T1, Heat shock protein HSP90; experiment: Inhibition of HSP90 in human CNE2Z cells assessed as downregulation of Bcl2 expression at 10 to 40 uM by Western blot analysis; type: cell-based
[8] = test system: MDA-MB-231; experiment: Antiproliferative activity against human MDA-MB-231 cells assessed as cell growth inhibition by MTT assay; type: functional, cell-based
[9] = Solubility of the compound in water relative to 17-AAG; type: physicochemical; details: buffer
[10] = target: T1, Heat shock protein HSP90; experiment: Inhibition of HSP90 in human CNE2Z cells assessed as downregulation of Her-2 expression at 10 to 40 uM by Western blot analysis; type: cell-based
[11] = test system: SW480; experiment: Antiproliferative activity against human SW480 cells assessed as cell growth inhibition by MTT assay; type: functional, cell-based
[12] = test system: SMMC-7721; experiment: Antiproliferative activity against human SMMC7721 cells assessed as cell growth inhibition by MTT assay; type: functional, cell-based
[13] = target: T1, Heat shock protein HSP90; experiment: Inhibition of HSP90 in human CNE2Z cells assessed as downregulation of HIF-1alpha expression at 10 to 40 uM by Western blot analysis; type: cell-based
[14] = target: T1, Heat shock protein HSP90; experiment: Inhibition of HSP90 in human CNE2Z cells assessed as downregulation of c-Raf expression at 10 to 40 uM by Western blot analysis; type: cell-based
[15] = Toxicity in nude mouse xenografted with human CNE2Z cells assessed as effect on body weight at 1 mg/kg, ip administered for 19 days; type: organism-based; details: in vivo, 456 h
[16] = test system: HepG2; experiment: Antiproliferative activity against human HepG2 cells assessed as cell growth inhibition by MTT assay; type: functional, cell-based
[17] = Toxicity in nude mouse xenografted with human CNE2Z cells assessed as effect on lung at 1 mg/kg, ip administered for 19 days by hematoxylin and eosin staining based assay; type: organism-based; details: in vivo, 456 h
[18] = target: T1, Heat shock protein HSP90; experiment: Inhibition of HSP90 ATPase activity (unknown origin) malachite-green phosphate assay; type: protein assay
[19] = Toxicity in nude mouse xenografted with human CNE2Z cells assessed as effect on body weight at 5 mg/kg, ip administered for 19 days; type: organism-based; details: in vivo, 456 h

## C=CCNC1=C2C[C@@H](C)C[C@H](OC)[C@H](O[C@@H]3O[C@H](CO)[C@@H](O)[C@H](O)[C@H]3O)[C@@H](C)/C=C(\C)[C@H](OC(N)=O)[C@@H](OC)/C=C\C=C(/C)C(=O)NC(=CC1=O)C2=O (stereo in doubt)
[1]
  IC50: 9200 nM
[2]
  solubility: 661 µM (≈ 494 µg/mL)
[3]
  Activity: Non-Toxic
[4]
  inhibition in vivo at 1 mg/kg: 75.5%
[5]
  Activity: Non-Toxic
[6]
  inhibition: Active
[7]
  inhibition: Active
[8]
  IC50: 28500 nM
[9]
  Ratio: 10.5
[10]
  inhibition: Active
[11]
  IC50: 6130 nM
[12]
  IC50: 5260 nM
[13]
  inhibition: Active
[14]
  inhibition: Active
[15]
  Activity: Non-Toxic
[16]
  IC50: 6280 nM
[17]
  Activity: Non-Toxic
[18]
  IC50: > 100000 nM

## COC1=C2C[C@@H](C)C[C@H](OC)[C@H](O)[C@@H](C)/C=C(\C)[C@H](OC(N)=O)[C@@H](OC)/C=C\C=C(/C)C(=O)NC(=CC1=O)C2=O [GELDANAMYCIN]
[1]
  IC50: 310 nM
[8]
  IC50: 620 nM
[11]
  IC50: 510 nM
[12]
  IC50: 110 nM
[16]
  IC50: 1740 nM

## C=CCNC1=C2C[C@@H](C)C[C@H](OC)[C@H](O)[C@@H](C)/C=C(\C)[C@H](OC(N)=O)[C@@H](OC)/C=C\C=C(/C)C(=O)NC(=CC1=O)C2=O [TANESPIMYCIN]
[1]
  IC50: 8410 nM
[2]
  solubility: 63 µM (≈ 36.9 µg/mL)
[8]
  IC50: 1790 nM
[11]
  IC50: 280 nM
[12]
  IC50: 190 nM
[19]
  Activity: Non-Toxic
[16]
  IC50: 320 nM
